Experimental data: patent US8609610B2, “Inhibitors of the trypsin-like site of the proteasome and methods of use thereof” (Trustees of Dartmouth College, priority 2011, dated 2013)
Read-outs that look alike come from different tables or passages of the source.

Key:
[1] = target: caspase-like site of 26S proteasomes (Oryctolagus cuniculus, UniProt A0A5F9DQW2); experiment: Inhibition of purified 26S proteasomes, substrate Ac-nLPnLD-amc; assay type: biochemical, rabbit; conditions: >>30 no inhibition at 30 μM, >30 inhibition between 10 and 50% at 30 μM, read-out: IC50 for sites in 26S proteasomes: Casp-L
caspase-like site of 26S proteasomes, sequence (A0A5F9DQW2 1-212): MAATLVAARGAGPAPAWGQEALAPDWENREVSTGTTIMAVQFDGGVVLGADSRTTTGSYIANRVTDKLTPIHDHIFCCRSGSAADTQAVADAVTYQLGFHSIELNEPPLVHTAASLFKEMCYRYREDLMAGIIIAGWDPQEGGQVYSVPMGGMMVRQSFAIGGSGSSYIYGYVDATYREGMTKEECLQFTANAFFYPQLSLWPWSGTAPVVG

[2] = tested on: T1, chymotrypsin-like sites (β5) of proteasome in MM cells; experiment: PROTEASOMEGLO assay of proteasome inhibition in MM cells; assay type: cell-based; conditions: 6 hours, >>30 no inhibition at 30 μM, >30 inhibition 10-50% at 30 μM, read-out: IC50 for sites: Chym-L
T1 construct: other: NCI-H929; bortezomib 100 nM 1 h; bortezomib 11 nM 1 h; bortezomib 3.7 nM 1 h; bortezomib 33 nM 1 h; other: NCI-H9

[3] = target: T2, trypsin-like sites (β2) of proteasome in MM cells (Homo sapiens, UniProt Q99436); experiment: as above; assay type: cell-based; conditions: for IC50: 6 hours, >>30 no inhibition at 30 μM, >30 inhibition 10-50% at 30 μM, read-out: IC50 for sites: Tr-L
T2 construct: endogenous in cells; host or cells: NCI-H929, RPMI-8226 and other MM cell lines
T2 sequence (Q99436 44-277): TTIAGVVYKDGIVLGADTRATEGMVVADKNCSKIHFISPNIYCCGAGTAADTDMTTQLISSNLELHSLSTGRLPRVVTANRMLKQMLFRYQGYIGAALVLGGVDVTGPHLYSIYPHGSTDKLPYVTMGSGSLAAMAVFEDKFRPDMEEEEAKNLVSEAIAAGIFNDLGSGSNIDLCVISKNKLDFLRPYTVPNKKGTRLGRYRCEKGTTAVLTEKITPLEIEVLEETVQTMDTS

[4] = target: T3, caspase-like sites (β1) of proteasome in MM cells (Homo sapiens, UniProt P28072+Q99436); experiment: as above; assay type: cell-based; conditions: 6 hours, >>30 no inhibition at 30 μM, >30 inhibition 10-50% at 30 μM, read-out: IC50 for sites: Casp-L
T3 sequence (P28072 35-239): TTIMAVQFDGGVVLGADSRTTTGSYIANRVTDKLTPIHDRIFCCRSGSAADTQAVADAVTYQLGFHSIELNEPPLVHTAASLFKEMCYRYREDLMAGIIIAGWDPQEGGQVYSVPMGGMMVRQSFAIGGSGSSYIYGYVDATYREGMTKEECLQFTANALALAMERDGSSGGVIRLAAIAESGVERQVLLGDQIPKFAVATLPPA
T3 sequence (Q99436 44-277): T2 sequence (Q99436 44-277)

NCI-H929 cells = experiment: ALAMAR BLUE cell viability assay; assay type: cell-based
Outline: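 Myeloma lines were grown in RPMI-1640 with 10% FBS; viability of myeloma cells was read by ALAMAR BLUE mitochondrial dye conversion. PBMNC viability used CELL TITER-GLO ATP luminescence. Caspase-3/7 activity in NCI-H929 and MM1.R was measured with the APO-ONE homogeneous assay.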

cathepsin D = target: T4, cathepsin D (Homo sapiens, UniProt P07339); experiment: Cathepsin D activity assay (SENSOLYTE 520); assay type: cell-based; conditions: concentrations as high as 27 μM
T4 construct: endogenous in cells
T4 sequence (P07339 65-412): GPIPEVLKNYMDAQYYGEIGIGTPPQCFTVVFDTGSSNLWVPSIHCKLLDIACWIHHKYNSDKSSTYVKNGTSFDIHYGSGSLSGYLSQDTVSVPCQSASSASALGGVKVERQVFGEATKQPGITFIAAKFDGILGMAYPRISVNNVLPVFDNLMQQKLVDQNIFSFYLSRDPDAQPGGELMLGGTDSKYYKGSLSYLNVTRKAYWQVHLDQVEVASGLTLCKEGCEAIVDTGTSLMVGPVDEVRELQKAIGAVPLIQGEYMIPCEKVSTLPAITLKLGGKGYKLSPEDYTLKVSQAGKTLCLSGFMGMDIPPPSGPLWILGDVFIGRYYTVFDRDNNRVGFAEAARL
Method: Cathepsin B, H, L, S activity was measured with pan-cathepsin substrate Z-FR-amc (Kirschke & Wiederanders (1994) Methods Enzymol. 244:500-11) in extracts of cytosol-less cells at pH 6.0 (Screen, et al. (2010) supra). Cathepsin D activity was measured in cytosol-less extracts using SENSOLYTE 520 Cathepsin D Fluorometric Assay Kit (AnaSpec). Combined cathepsin D and E activity was measured using the same kit, in which cathepsin D substrate provided with the kit was replaced with 7-Methoxycoumarin-[…](Dnp)-X′-NH2 (SEQ ID NO:10; where “X′” stand for D-Arg) internally quenched fluorogenic substrate of cathepsin D and E. In this case, pH 3.0 assay buffer used for cell extraction. All activity observed using both procedures was inhibited by more than 98% by specific inhibitor of aspartic proteases pepstatin A.

[5] = tested on: MM cell lines NCI-H929, MM1.R, RPMI-8226, KMS-18, KMS-12-BM; experiment: ALAMAR BLUE viability, panel of MM cell lines; assay type: cell-based
Method: RPMI-8226 and NCI-H929 cells were cultured in RPMI-1640 supplemented with 10% fetal bovine serum, penicillin, streptomycin, and plasmocin in 5% CO2 humidified incubator. HEK-293T cells were cultured in DMEM containing 10% fetal calf serum, 10 units/mL penicillin, and 10 μg/mL streptomycin in a 7% CO2 humidified incubator. Viability of multiple myeloma cells was measured with ALAMAR BLUE mitochondrial dye conversion assay. Viability of peripheral blood mononuclear cells (PBMNCs) was measured using CELL TITER-GLO luminescent cell viability assay (Promega), which is based on quantification of ATP present in the cells. Caspase-3/7 activity was measured using APO-ONE 3/7 homogeneous assay (Promega).
In a parallel set of experiments, it was tested whether co-inhibiting caspase-like and trypsin-like sites suffices to induce cytotoxicity in the absence of inhibition of the chymotrypsin-like sites and whether such dual inhibition is a stronger sensitizer to LU-005 than inhibition of the trypsin-like sites alone. Four additional myeloma cell lines, MM1.R, RPMI-8226, KMS-18, and KMS-12-BM, were selected for these experiments. These cell lines vary up to 40-fold in their sensitivity to bortezomib and NC-005 (Britton, et al. (2009) supra). In all experiments, NC-022 was used at a concentration that inhibited trypsin-like activity by more than 90% after a 6-hour incubation.

SMILES: Cc1c(O)cccc1C(=O)N[C@H](C(=O)N[C@@H](CO)C(=O)N[C@@H](CCCNC(=N)N)C(=O)[C@@]1(C)CO1)C(C)C [NC-022, HMB-Val-Ser-Arg-ek]
- IC50 [1]: 16 µM
- IC50 ([2]; NCI-H929 cells): > 30 µM
- IC50 ([2]; RPMI-8226 cells): > 30 µM
- inhibition at 3 µM ([3]; 3 μM NC-022, within 4-6 hours after addition): 90%
- inhibition of trypsin-like activity by NC-022 treatment ([3]; NCI-H929 and KMS-12-BM, 5 hours after NC-022 addition): that trypsin-like activity was inhibited by >90% but inhibition of the chymotrypsin-like activity was not altered by NC-022 treatment.
- inhibition of trypsin-like activity in live cells ([3]; NCI-H929 cells treated overnight): sub-micromolar concentrations
- IC50 ([3]; NCI-H929 cells): 0.9 µM
- IC50 ([3]; RPMI-8226 cells): 24 µM
- IC50 ([4]; NCI-H929 cells): > 30 µM
- IC50 ([4]; RPMI-8226 cells): > 30 µM
- sensitization: change of IC50 of LU-005 (NCI-H929 cells; LU-005 1 hour, then NC-022 48 hours, maximal at 3 μM NC-022): up to 8.5 fold
- cell viability (NCI-H929 cells; NCI-H929, 48 hours, even at concentrations that completely inhibited the trypsin-like sites): No loss of viability
- inhibition of cathepsin D (cathepsin D): did not inhibit
- sensitization to LU-005 compared with NC-001 ([5]; NCI-H929 and KMS-12-BM): more potent sensitizer than NC-001
- reduction of the IC50 for LU-005 ([5]; all MM cell lines, NC-022 at concentration inhibiting trypsin-like activity >90% after 6 h): 4-10 fold
- reduction of cell viability ([5]; continuous exposure to mixture of NC-022 and NC-001, both sites blocked by more than 90%): 20-50%
- sensitization of MM cells to LU-005 ([5]; mixture of NC-001 and NC-022 after 1 hour LU-005): much stronger sensitizer than NC-022 alone
